Values quoted from earlier work in patent US20210228408A1, “Glaucoma Treatment Via Intracameral Ocular Implants” (Allergan, Inc., priority 2015, published 2021).

Assays:
[1] = molecular target: prostaglandin F (FP) receptor (Homo sapiens, UniProt P43088); conditions: read-out: Most potent measured EC50 on FP receptor
[2] = molecular target: Cloned Human Ciliary Body FP Prostaglandin Receptor (Homo sapiens, UniProt P43088); conditions: read-out: Functional Potency, EC50
Sequence of Cloned Human Ciliary Body FP Prostaglandin Receptor (P43088 whole entry): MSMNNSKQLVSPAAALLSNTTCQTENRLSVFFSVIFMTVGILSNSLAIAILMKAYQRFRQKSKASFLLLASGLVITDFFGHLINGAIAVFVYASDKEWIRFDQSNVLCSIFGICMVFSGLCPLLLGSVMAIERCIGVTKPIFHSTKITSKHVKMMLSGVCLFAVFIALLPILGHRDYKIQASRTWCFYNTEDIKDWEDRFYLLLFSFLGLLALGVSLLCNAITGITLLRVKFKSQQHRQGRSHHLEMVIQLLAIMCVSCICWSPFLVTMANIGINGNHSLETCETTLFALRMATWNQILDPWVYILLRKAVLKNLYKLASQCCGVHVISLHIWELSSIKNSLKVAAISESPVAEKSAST

Sequence of prostaglandin F (FP) receptor (P43088 whole entry): as above

SMILES | EC50 [1] [nM] | EC50 [2] [nM]
CC(C)OC(=O)CCC/C=C\C[C@@H]1[C@@H](/C=C/[C@@H](O)COc2cccc(C(F)(F)F)c2)[C@H](O)C[C@@H]1O [Travoprost, propan-2-yl 7-[3,5-dihydroxy-2-[3-hydroxy-4-[3-(trifluoromethyl)phenoxy]-but-1-enyl]-cyclopentyl]hept-5-enoate] | ~1.4 | 
O=C(O)CCC/C=C\C[C@@H]1[C@@H](/C=C/[C@@H](O)CCc2ccccc2)[C@H](O)C[C@@H]1O [Bimatoprost acid] | ~3.3 | 5.8
O=C(O)CCC/C=C\C[C@@H]1[C@@H](/C=C/[C@@H](O)COc2cccc(C(F)(F)F)c2)[C@H](O)C[C@@H]1O [Travoprost acid] | 1.4 | 3.2
